Assay results from ChEMBL document CHEMBL1136398, “Non-peptide alphavbeta3 antagonists. Part 6: design and synthesis of alphavbeta3 antagonists containing a pyridone or pyrazinone central scaffold” (Bioorg Med Chem Lett, 2003).

Assays:
[1] = Protein binding in human plasma; format: ADME, cell-free; details: read-out: PB (converted)
[2] = Half-life in vivo in dog by intravenous administration at a dose of 0.2 mg/kg; format: ADME, organism-based, Canis lupus familiaris; parameters: dose 0.2 mg/kg, route intravenous
[3] = Half-life in vivo in dog by intravenous administration at a dose of 1 mg/kg; format: ADME, organism-based, Canis lupus familiaris; parameters: dose 1 mg/kg, route intravenous
[4] = test system: Canis familiaris; assay: Plasma clearance in vivo in dog by intravenous administration at a dose of 0.2 mg/kg; format: ADME, organism-based, Canis lupus familiaris; parameters: dose 0.2 mg/kg, route intravenous
[5] = test system: Canis familiaris; assay: Plasma clearance in vivo in dog by intravenous administration at a dose of 1 mg/kg; format: ADME, organism-based, Canis lupus familiaris; parameters: dose 1 mg/kg, route intravenous
[6] = Partition coefficient (logP); format: physicochemical; details: octanol/water
[7] = molecular target: T1, Integrin alpha-V/beta-3 (Homo sapiens, UniProt P05106+P06756); assay: Inhibitory activity against human alphaV-beta3 integrin using SPAV3 assay; format: protein-complex assay
[8] = molecular target: T1, Integrin alpha-V/beta-3; assay: Inhibitory activity against human alpha V beta3 receptor using SPAV3 assay; format: protein-complex assay
[9] = Oral bioavailability in dog (dose 0.2 mg/kg i.v.); format: ADME, organism-based, Canis lupus familiaris; details: in vivo
[10] = Oral bioavailability in dog (dose 1 mg/kg i.v.); format: ADME, organism-based, Canis lupus familiaris; details: in vivo

T1 sequence (P05106 27-788 limits assumed): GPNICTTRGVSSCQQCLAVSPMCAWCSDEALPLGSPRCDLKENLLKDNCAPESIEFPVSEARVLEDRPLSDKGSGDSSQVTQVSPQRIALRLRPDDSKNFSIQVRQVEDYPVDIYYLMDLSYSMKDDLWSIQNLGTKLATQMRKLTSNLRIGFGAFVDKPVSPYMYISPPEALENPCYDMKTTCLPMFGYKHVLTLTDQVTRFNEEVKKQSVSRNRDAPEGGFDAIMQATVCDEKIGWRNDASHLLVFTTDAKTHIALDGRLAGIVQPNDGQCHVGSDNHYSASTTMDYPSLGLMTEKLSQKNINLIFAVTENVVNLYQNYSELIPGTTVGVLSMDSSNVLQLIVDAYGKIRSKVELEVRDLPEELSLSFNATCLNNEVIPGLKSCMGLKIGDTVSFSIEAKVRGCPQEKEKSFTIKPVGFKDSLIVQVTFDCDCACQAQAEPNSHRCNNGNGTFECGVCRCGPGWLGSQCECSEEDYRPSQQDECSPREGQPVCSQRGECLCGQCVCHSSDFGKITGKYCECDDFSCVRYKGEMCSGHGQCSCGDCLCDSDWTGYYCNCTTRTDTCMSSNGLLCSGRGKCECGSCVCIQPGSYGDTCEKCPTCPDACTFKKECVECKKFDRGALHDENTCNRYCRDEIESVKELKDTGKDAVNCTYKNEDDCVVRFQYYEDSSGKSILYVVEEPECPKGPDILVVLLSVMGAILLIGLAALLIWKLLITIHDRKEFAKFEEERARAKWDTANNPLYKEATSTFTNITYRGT
T1 sequence (P06756 31-889 limits assumed): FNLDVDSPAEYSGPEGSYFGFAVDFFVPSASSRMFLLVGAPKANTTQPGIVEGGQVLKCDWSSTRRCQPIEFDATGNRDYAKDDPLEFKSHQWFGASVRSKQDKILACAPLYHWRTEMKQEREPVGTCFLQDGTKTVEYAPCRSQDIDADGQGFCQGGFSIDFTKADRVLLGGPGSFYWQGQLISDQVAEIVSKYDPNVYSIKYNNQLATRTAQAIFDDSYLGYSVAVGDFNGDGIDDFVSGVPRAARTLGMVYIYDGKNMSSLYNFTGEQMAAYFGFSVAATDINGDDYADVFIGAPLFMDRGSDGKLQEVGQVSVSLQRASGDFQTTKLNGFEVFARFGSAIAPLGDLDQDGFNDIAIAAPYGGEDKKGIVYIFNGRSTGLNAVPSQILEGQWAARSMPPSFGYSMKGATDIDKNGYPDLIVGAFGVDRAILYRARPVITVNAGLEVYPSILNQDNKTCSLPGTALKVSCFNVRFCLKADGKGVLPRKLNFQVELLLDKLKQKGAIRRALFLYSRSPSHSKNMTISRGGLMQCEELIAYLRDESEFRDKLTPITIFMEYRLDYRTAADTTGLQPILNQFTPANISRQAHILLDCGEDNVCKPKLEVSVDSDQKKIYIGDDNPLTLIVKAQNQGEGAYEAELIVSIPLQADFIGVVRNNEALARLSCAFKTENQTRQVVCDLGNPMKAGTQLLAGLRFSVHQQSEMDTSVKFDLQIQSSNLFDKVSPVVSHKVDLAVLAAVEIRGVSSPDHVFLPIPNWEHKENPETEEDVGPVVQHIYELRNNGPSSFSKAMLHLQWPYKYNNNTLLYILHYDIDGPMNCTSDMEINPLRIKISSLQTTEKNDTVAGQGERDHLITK
T1 sequence (P06756 891-1048 limits assumed): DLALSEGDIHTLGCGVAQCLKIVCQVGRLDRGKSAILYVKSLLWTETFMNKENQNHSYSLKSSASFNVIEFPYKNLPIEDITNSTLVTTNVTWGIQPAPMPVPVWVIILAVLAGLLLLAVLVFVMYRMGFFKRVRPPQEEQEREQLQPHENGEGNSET

fraction unbound [1] | half-life [2] [h] | half-life [3] [h] | Cl [4] [mL/min/kg] | Cl [5] [mL/min/kg] | logP [6] | IC50 [7] [nM] | IC50 [8] [nM] | bioavailability [9] [%] | bioavailability [10] [%] | SMILES
– | – | – | – | – | 1.1 | – | 2.7 | – | – | O=C(O)C[C@H](NC(=O)Cn1c(C2CC2)c(Cl)nc(NCc2ccc3c(n2)NCCC3)c1=O)c1cccc(F)c1
– | – | – | – | – | 1.12 | – | 0.7 | – | – | O=C(O)C[C@H](NC(=O)Cn1c(C2CC2)c(Cl)nc(NCc2ccc3c(n2)NCCC3)c1=O)c1cnc2ccccc2c1
0.015 | 2.1 | 2.1 | 28 | 28 | 0.61 | – | 2.1 | – | – | Cc1c(Cl)nc(NCc2ccc3c(n2)NCCC3)c(=O)n1CC(=O)N[C@@H](CC(=O)O)c1cccc(F)c1
0.006 | 0.8 | 0.8 | 20 | 20 | 0.54 | 0.8 | – | 3 | 3 | O=C(O)C[C@H](NC(=O)Cn1c(C2CC2)ccc(NCc2ccc3c(n2)NCCC3)c1=O)c1cccc(F)c1
– | – | – | – | – | 1.6 | – | 112 | – | – | O=C(O)C[C@H](NC(=O)Cn1c(-c2ccccc2)c(Cl)nc(NCc2ccc3c(n2)NCCC3)c1=O)c1cccc(F)c1
– | – | – | – | – | 0.25 | – | 0.2 | – | – | O=C(O)C[C@H](NC(=O)Cn1c(C2CC2)cnc(NCc2ccc3c(n2)NCCC3)c1=O)c1cccnc1
0.025 | 1.1 | 1.1 | 26 | 26 | -0.1 | – | 0.2 | 0.3 | 0.3 | O=C(O)C[C@H](NC(=O)Cn1c(C2CC2)cnc(NCc2ccc3c(n2)NCCC3)c1=O)c1ccc2c(c1)OCO2
– | – | – | – | – | 0.9 | – | 0.2 | – | – | O=C(O)C[C@H](NC(=O)Cn1c(C2CC2)c(Cl)nc(NCc2ccc3c(n2)NCCC3)c1=O)c1ccc2c(c1)OCC2
0.025 | 1.1 | 1.1 | 26 | 26 | 0.15 | – | 1.4 | 0.3 | 0.3 | O=C(O)C[C@H](NC(=O)Cn1c(C2CC2)cnc(NCc2ccc3c(n2)NCCC3)c1=O)c1cccc(F)c1
– | – | – | – | – | 1.3 | – | 9.3 | – | – | CCc1c(Cl)nc(NCc2ccc3c(n2)NCCC3)c(=O)n1CC(=O)N[C@@H](CC(=O)O)c1cccc(F)c1
– | – | – | – | – | -0.31 | – | 1.1 | – | – | Cc1cnc(NCc2ccc3c(n2)NCCC3)c(=O)n1CC(=O)N[C@@H](CC(=O)O)c1cccc(F)c1
– | – | – | – | – | -0.8 | 0.2 | – | – | – | O=C(O)C[C@H](NC(=O)Cn1c(C2CC2)ccc(NCc2ccc3c(n2)NCCC3)c1=O)c1cccnc1
– | – | – | – | – | -0.26 | – | 0.3 | – | – | O=C(O)C[C@H](NC(=O)Cn1c(C2CC2)c(Cl)nc(NCc2ccc3c(n2)NCCC3)c1=O)c1cccnc1

The remaining lines, values behind:

SMILES | fraction unbound [1] | half-life [2] [h] | half-life [3] [h] | Cl [4] [mL/min/kg] | Cl [5] [mL/min/kg] | logP [6] | IC50 [7] [nM] | IC50 [8] [nM] | bioavailability [9] [%] | bioavailability [10] [%]
Cc1ccc(NCc2ccc3c(n2)NCCC3)c(=O)n1CC(=O)N[C@@H](CC(=O)O)c1cccnc1 | 0.088 | 0.8 | 0.8 | 21 | 21 | -1.46 | 1 | – | – | –
O=C(O)C[C@H](NC(=O)CN1CC[C@H](CCc2ccc3c(n2)NCCC3)C1=O)c1cccnc1 | 0.446 | 1 | 1 | – | – | – | – | 0.4 | – | –
O=C(O)C[C@H](NC(=O)Cn1cccc(NCc2ccc3c(n2)NCCC3)c1=O)c1cccnc1 | – | – | – | – | – | 1.55 | 1.4 | – | – | –
O=C(O)C[C@H](NC(=O)Cc1cccc(CCc2ccc3c(n2)NCCC3)c1)c1cccnc1 | – | – | – | – | – | – | – | 21 | – | –
Cc1cnc(NCc2ccc3c(n2)NCCC3)c(=O)n1CC(=O)N[C@@H](CC(=O)O)c1cccnc1 | – | – | – | – | – | – | 0.8 | – | – | –
C#C[C@H](CC(=O)O)NC(=O)Cn1c(C2CC2)ccc(NCc2ccc3c(n2)NCCC3)c1=O | – | – | – | – | – | -0.97 | 9 | – | – | –
CCCc1ccc(NCc2ccc3c(n2)NCCC3)c(=O)n1CC(=O)N[C@@H](CC(=O)O)c1cccnc1 | – | – | – | – | – | -0.48 | 1.4 | – | – | –
O=C(O)C[C@H](NC(=O)Cc1ccc(CCc2ccc3c(n2)NCCC3)s1)c1cccnc1 | – | – | – | – | – | – | 246 | – | – | –
O=C(O)C[C@H](NC(=O)Cn1c(C2CC2)ccc(NCc2ccc3c(n2)NCCC3)c1=O)c1ccc2c(c1)OCC2 | – | – | – | – | – | 0.28 | 0.2 | – | – | –
CCc1cnc(NCc2ccc3c(n2)NCCC3)c(=O)n1CC(=O)N[C@@H](CC(=O)O)c1cccc(F)c1 | 0.028 | 1.4 | 1.4 | 22 | 22 | -0.47 | – | 1.9 | 4.3 | 4.3
